Tested on: Klebsiella oxytoca LXA-1
Assay: MIC, characterised β-lactamase producing strain (Example 5, Tables 5-7)
Format: cell-based
Conditions: Klebsiella oxytoca LXA-1, functional group 2b; LK-157 in combination constant 4 μg/mL

CO/N=C(\C(=O)N[C@@H]1C(=O)N2C(C(=O)[O-])=C(C[N+]3(C)CCCC3)CS[C@H]12)c1csc(N)n1 [cefepime]
MIC: 0.125 µg/mL

From patent publication US20100029604A1, “ANTIBACTERIAL COMBINATION AND ITS USE” (priority 2007, published 2010)
